From US20200375864A1, “PERIODONTAL DISEASE TREATMENT” (STRAUMANN HOLDING AG, priority 2013, published 2020)
Entries after “also recorded” stand apart in the source; their conditions may differ.

Legend:
supragingival biofilm = test: 70/30 supragingival biofilm model, biofilm decontamination with antimicrobial solutions (Experiments 1 and 2); format: cell-based; settings: for biofilm microbiota after 24 h (CFU, FIG. 8) / immediate effect on the biofilm microbiota (CFU, FIG. 8): hydrogen peroxide 0.1% and 1%; for CFU 24 hours after cleaning agent treatment (summary, FIG. 3b) / CFU immediately after cleaning agent treatment (summary, FIG. 3a): supragingival model, experiments 1 and 2; for immediate effect on the biofilm microbiota (CFU, FIG. 8): immediately after application, sodium hypochlorite 0.1%, 1% and 3%, detection limit <2.0E1; for CFU immediately after cleaning agent treatment (summary, FIG. 3a): immediate; for lasting biofilm inhibiting effect, recovery of the microorganisms after 24 h (CFU, FIG. 7) / immediate decontaminating effect compared to the saline control (CFU, FIG. 7): Experiment 1, chlorhexidine 0.2%, hydrogen peroxide 3%; for immediate decontaminating effect compared to the saline control (CFU, FIG. 7): after dip, sodium hypochlorite 3%
Excerpt: Evaluation of biofilm decontamination with various antimicrobial solutions Tested in a 70/30 supragingival biofilm model For a detailed description of the biofilm model used in this experiment, see e.g. Guggenheim et al., 2004, 2001 a; and Shapiro et al., 2002 and Guggenheim et al., 2009. […]

subgingival biofilm = subgingival biofilm model on titanium discs, antimicrobial solutions alone, total CFU (Experiment 3); format: cell-based; settings: for reduction of the microbiota on the biofilms compared with the saline controls immediately after exposure (total CFU, FIG. 13): immediately after 1 min exposure, NaCIO 0.1% and 1%
Excerpt: (§1) Evaluation of subgingival biofilm decontamination with various antimicrobial solutions tested in a subgingival biofilm model For a detailed description of the biofilm model used in this experiment, see e.g. Guggenheim et al., 2004, 2001 a; and Shapiro et al., 2002 and Guggenheim et al., 2009. OMZ 278, Prevotella intermedia OMZ 493, Veilonella dispar OMZ 598, Fusobacterium nucleatum OMZ 607, Streptococcus oralis OMZ 661, Treponema denticola OMZ 698, Campylobacter rectus OMZ 745, Actinomyces oris OMZ 871, Streptococcus anginosus OMZ 925, Porphyromonas gingivalis OMZ 1047, Tannerella forsythia [table] The purpose of the present biofilm experiment was to assess the efficacy of various antimicrobial solutions on a subgingival microbiota associated with periodontitis and implantitis. The antimicrobial effect was evaluated immediately and 24 h after a 1 min exposure to the test solutions to biofilms grown on titanium discs.

[1] = tested on: individual members of the biofilm consortium; test: subgingival biofilm model, antimicrobial solutions alone, effect on individual species (Experiment 3); format: cell-based; settings: NaCIO 0.1% and 1%; for P. intermedia and P. gingivalis in the following 24 h (re-growth): 24 h after treatment; for immediate effect on individual species (FIGS. 9, 10 and 11): all species, immediately after 1 min exposure
Excerpt: as §1

skin = settings: 2% solution; cited from earlier work
[2] = cited from earlier work

SMILES | biofilm microbiota after 24 h (CFU, FIG. 8) (supragingival biofilm; Experiment 2, 24 h after dip) | CFU 24 hours after cleaning agent treatment (summary, FIG. 3b) (supragingival biofilm) | immediate effect on the biofilm microbiota (CFU, FIG. 8) (supragingival biofilm; Experiment 2) | CFU immediately after cleaning agent treatment (summary, FIG. 3a) (supragingival biofilm) | reduction of the microbiota on the biofilms compared with the saline controls immediately after exposure (total CFU, FIG. 13) (subgingival biofilm; Experiment 3) | immediate effect on individual species (FIGS. 9, 10 and 11) [1] | immediate decontaminating effect compared to the saline control (CFU, FIG. 7) (supragingival biofilm) | other results
[Na+].[O-]Cl [0.1% NaCIO, Sodium hypochlorite] | in part recovered | bacterial regrowth |  |  |  |  |  | 
[H]/N=C(\N/C(=N/[H])NCCCCCCNC(=N)NC(=N)Nc1ccc(Cl)cc1)Nc1ccc(Cl)cc1 [0.2% CHX, Chlorhexidine] |  | clear CFU reduction | low immediate effect | no significant immediate CFU influence |  |  |  | reduction of the biofilm microbiota after 24 h (supragingival biofilm; Experiment 2, 24 h after dip): ~6 log steps
[H]/N=C(\N/C(=N/[H])NCCCCCCNC(=N)NC(=N)Nc1ccc(Cl)cc1)Nc1ccc(Cl)cc1 [1% CHX, Chlorhexidine] | eradicating totally the biofilm microbiota | clear CFU reduction |  | no significant immediate CFU influence | only a limited effect | only a limited effect |  | P. intermedia and P. gingivalis in the following 24 h (re-growth) [1]: eradication
[H]/N=C(\N/C(=N/[H])NCCCCCCNC(=N)NC(=N)Nc1ccc(Cl)cc1)Nc1ccc(Cl)cc1 [2% chlorhexidine, chlorhexidine] |  |  |  |  |  |  |  | skin irritation (skin): irritating to the skin
OO [3% H2O2, hydrogen peroxide] |  |  |  |  | only a limited effect | only a limited effect |  | 
OCl [3.0% sodium hypochlorite, Sodium hypochlorite] | no detectable microorganisms |  | no detectable microorganisms |  |  |  |  | 
N=C(NCCCCCCNC(=N)NC(=N)Nc1ccc(Cl)cc1)NC(=N)Nc1ccc(Cl)cc1.O=C(O)[C@H](O)[C@@H](O)[C@H](O)[C@H](O)CO.O=C(O)[C@H](O)[C@@H](O)[C@H](O)[C@H](O)CO [CHX gluconate, Chlorhexidine gluconate] |  |  |  |  |  |  |  | solubility in water [2]: water-soluble
[H]/N=C(\N/C(=N/[H])NCCCCCCNC(=N)NC(=N)Nc1ccc(Cl)cc1)Nc1ccc(Cl)cc1 [CHX, Chlorhexidine] |  |  |  |  |  |  | very modest | strong sustained effect on the total CFU after 24 h / biofilm re-growth (subgingival biofilm; Experiment 3, 24 h after 1 min exposure): not observed; lasting biofilm inhibiting effect, recovery of the microorganisms after 24 h (CFU, FIG. 7) (supragingival biofilm; 24 h after dip): strong lasting effect
OO [H2O2, hydrogen peroxide] | re-established to the level of the controls |  | low decontaminating action |  |  |  | very modest | lasting biofilm inhibiting effect, recovery of the microorganisms after 24 h (CFU, FIG. 7) (supragingival biofilm; 24 h after dip): no or minute lasting biofilm inhibiting action
OCl [NaCIO, Sodium hypochlorite] |  | no sustained effect on its own |  | reduces CFU counts the most; also recorded: strong immediate CFU reduction | near or to the detection limit | near or to the detection limit | very impressive | CFU immediately after cleaning agent treatment (summary, FIG. 3a) (subgingival biofilm; subgingival model, experiment 3, immediate): strong immediate CFU reduction; immediate effect on the biofilm microbiota (CFU, FIG. 8) (supragingival biofilm; Experiment 2, listed as sodium hypochlorite): below the detection level; P. intermedia and P. gingivalis in the following 24 h (re-growth) [1]: eradication
